Laboratory results published in patent US6762188B1, “Pharmaceutically active benzoquinazoline compounds” (SmithKline Beecham Corporation, priority 1990, dated 2004).
pIC50: −log10 of the molar value. Where two headings read alike, the source gives them in different places.

Assays:
[1] = tested on: SW480 human colon adenocarcinoma; assay: Tumor cell culture cytotoxicity (MTT dye reduction), SW480
Experimental: SW480 and WiDr colon adenocarcinomas, MCF-7 breast adenocarcinoma, A427 lung carcinoma and MOLT-4 T-cell leukemia were used for the primary screening of compounds. […] MCF-7, A427 and SW480 were grown in the above medium further supplemented with sodium pyruvate.
(§1) Cells are seeded into 96-well plates using a Perkin-Elmer Pro/pette. SW480 and A427 were seeded at 8,000 cells per well, MCF-7 at 10,000, Widr at 7500, and MOLT-4 at 12,500 cells per well, all in 150 µl of medium. Prior to the addition of drugs, cultures were incubated for 24 hrs at 37°. Compounds were added at 2×concentration in 150 l of medium and each concentration was assayed in triplicate. If DMSO or ethanol were used to solubilize compounds, appropriate controls were run if the concentration exceeded 0.01%. Cultures were incubated for 72 hours (96 hours for SW480 and MCF-7) in a 37° humidified incubator at 5% CO2. Inhibition of cell growth was measured using the MTT dye reduction assay.
(§2) Cell dilutions for a standard curve were prepared from a 72 hour log-phase culture. Serial dilutions were seeded in triplicate in 96-well plates and incubated at 37 degrees for one hour. MTT (3-(4,5-dimethylthiazol-2-yl)-2,5-diphenyltetrazolium bromide) was dissolved in PBS at 5 mg/ml and sonicated for 30 seconds. Using the Perkin Elmer Pro/pette, 200 μl of medium was removed and 100 μl of MTT added to the wells of the standard curve and test plates. Suspension cultures were spun for 5 min at 1000 rpm before removing medium from the wells. Plates were incubated for 1 hour at 370 on a platform shaker. Following this incubation 100 ml of medium was removed from the wells and 100 μl of DMSO added to each well. The plates were sonicated for approximately 10 seconds to solubilize the precipitated formazan dye. The absorbance of each well was measured using a Titertek Multiscan MC microtiter plate reader at 570 nm with a reference wavelength of 750 nm. Data was collected using a Mariachi Seed-2 and stored and analyzed using an IBM-AT and Lotus 1-2-3 software.

[2] = molecular target: T1, Mammalian Thymidylate Synthase (Homo sapiens, UniProt P04818); assay: Thymidylate synthase inhibition, tritium release assay; type: biochemical
T1 construct: made in house; host or cells: Escherichia coli

[3] = Cell culture cytotoxicity, L cells; type: cell-based; conditions: mouse, L fibroblast cell line, read-out: Tumor Cell Culture Cytotoxicity IC50 Other (L)
Experimental: as §1, §2

[4] = Cell culture cytotoxicity, D98; type: cell-based; conditions: human, D98 bone marrow cell line, read-out: Tumor Cell Culture Cytotoxicity IC50 Other (D98)
Experimental: as §1, §2

[5] = Homo sapiens, SW480, read-out: Tumor Cell Culture Cytotoxicity IC50 SW480, Table B, fully aromatic 3-amino derivatives
[6] = Table B, fully aromatic 3-amino derivatives
[7] = Table C, 5,6-dihydro 3-amino derivatives
[8] = Homo sapiens, SW480, read-out: Tumor Cell Culture Cytotoxicity IC50 SW480, Table E, fully aromatic 3-methyl derivatives
[9] = Table E, fully aromatic 3-methyl derivatives
[10] = Table D, 5,6-dihydro 3-methyl derivatives
[11] = Homo sapiens, SW480, read-out: Cell Culture Cytotoxicity CCCT SW-480, Table F, fully aromatic p-aminobenzoylglutamates
[12] = Homo sapiens, SW480, read-out: Cell Culture Cytotoxicity CCCT SW-480, Table G, dihydrobenzoquinazoline p-aminobenzoylglutamates

T1 sequence (P04818 whole entry): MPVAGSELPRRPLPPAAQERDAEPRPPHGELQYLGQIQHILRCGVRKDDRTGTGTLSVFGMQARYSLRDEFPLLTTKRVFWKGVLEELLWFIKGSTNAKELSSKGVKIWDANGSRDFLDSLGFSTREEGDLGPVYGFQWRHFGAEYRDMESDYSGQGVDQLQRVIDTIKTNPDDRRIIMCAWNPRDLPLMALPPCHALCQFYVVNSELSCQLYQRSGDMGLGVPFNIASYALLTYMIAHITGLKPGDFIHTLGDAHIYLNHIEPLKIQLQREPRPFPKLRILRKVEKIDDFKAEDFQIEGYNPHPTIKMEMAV

Row | pIC50 [2] | SMILES | pIC50 [1, 5] | other results
1 | 3.52 to 6.00 | Nc1nc2ccc3c(N)c(Br)ccc3c2c(=O)[nH]1 [3,7-Diamino-8-bromobenzo(f)quinazolin-1(2H)-one] | 4.70 | 
2 | 3.52 to 6.00 | Nc1ccc2c(ccc3nc(N)nc(O)c32)c1 [3,8-Diaminobenzo(f)quinazolin-1(2H)-one] | 4.00 | IC50 at 72 h [3, 6]: 40 µM; IC50 at 72 h [4, 6]: 53 µM
3 | > 6.00 | Nc1ccc2ccc3nc(N)[nH]c(=O)c3c2c1 [3,9-Diaminobenzo(f)quinazolin-1(2H)-one] | 4.10 | 
4 | 3.52 to 6.00 | Nc1nc2ccc3cc(F)cc(N)c3c2c(=O)[nH]1 [3,10-Diamino-8-fluorobenzo(f)quinazolin-1(2H)-one] | 4.15 | 
5 | > 6.00 | Nc1nc2ccc3ccc(Br)c(N)c3c2c(=O)[nH]1 [3,10-Diamino-9-bromobenzo(f)quinazolin-1(2H)-one] | 4.52 | 
6 |  | CSc1ccc2c(c1)-c1c(nc(N)[nH]c1=O)CC2 [3-Amino-5,6-dihydro-9-(methylthio)benzo(f)quinazolin-1(2H)-one] |  | IC50 at 72 h [3, 7]: 46 µM
7 | 3.52 to 6.00 | COCc1cc2nc(N)nc(O)c2c2ccccc12 [3-Amino-6-(methoxymethyl)benzo(f)quinazolin-1(2H)-one] | 4.22 | IC50 at 72 h [3, 6]: 56 µM; IC50 at 72 h [4, 6]: 74 µM
8 | 3.52 to 6.00 | Nc1nc2ccc3c(F)cccc3c2c(=O)[nH]1 [3-Amino-7-fluorobenzo(f)quinazolin-1(2H)-one] | 4.52 | 
9 | 3.52 to 6.00 | Nc1nc2ccc3c(I)cccc3c2c(=O)[nH]1 [3-Amino-7-iodobenzo(f)quinazolin-1(2H)-one] | 5.00 | 
10 | 3.52 to 6.00 | Nc1nc2ccc3c([N+](=O)[O-])c(Br)ccc3c2c(=O)[nH]1 [3-Amino-8-bromo-7-nitrobenzo(f)quinazolin-1(2H)-one] | 4.60 | 
11 | 3.52 to 6.00 | Nc1nc2ccc3cc(F)cc([N+](=O)[O-])c3c2c(=O)[nH]1 [3-Amino-8-fluoro-10-nitrobenzo(f)quinazolin-1(2H)-one] | 4.30 | 
12 |  | CCSc1ccc2c(c1)-c1c(nc(N)[nH]c1=O)CC2 [3-Amino-9-(ethylthio)-5,6-dihydrobenzo(f)quinazolin-1(2H)-one] |  | IC50 at 72 h [3, 7]: 33 µM; IC50 at 72 h [4, 7]: 54 µM
13 | > 6.00 | Nc1nc2ccc3ccc(Br)c([N+](=O)[O-])c3c2c(=O)[nH]1 [3-Amino-9-bromo-10-nitrobenzo(f)quinazolin-1(2H)-one] | 4.70 | 
14 | > 6.00 | Cc1cc2nc(N)nc(O)c2c2cc(Cl)ccc12 [3-Amino-9-chloro-6-methylbenzo(f)quinazolin-1(2H)-one] | 5.70 | 
15 | > 6.00 | CCc1ccc2ccc3nc(N)[nH]c(=O)c3c2c1 [3-Amino-9-ethylbenzo(f)quinazolin-1(2H)-one] | 4.70 | 
16 | > 6.00 | Nc1nc2ccc3ccc(O)cc3c2c(=O)[nH]1 [3-Amino-9-hydroxybenzo(f)quinazolin-1(2H)-one] | 4.40 | 
17 | > 6.00 | Cc1ccc2ccc3nc(N)nc(O)c3c2c1 [3-Amino-9-methylbenzo(f)quinazolin-1(2H)-one] | 4.52 | IC50 at 72 h [3, 6]: 8 µM
18 |  | Cc1nc2ccc3ccc(CNc4ccc5c(c4)CCC5=O)cc3c2c(=O)[nH]1 [3-Methyl-9-(((1-oxo-5-indanyl)amino)methyl)benzo)[f]quinazolin-1(2H)-one] |  | pIC50 [1, 8]: 7.82; IC50 at 72 h [3, 9]: 0.058 µM; IC50 at 72 h [4, 9]: 0.25 µM

Row | pIC50 [2] | SMILES | pIC50 [1, 5] | other results
19 |  | Cc1nc2ccc3ccc(CNc4ccc(C(=O)CCC(=O)O)cc4)cc3c2c(=O)[nH]1 [4-(4-(((1,2-Dihydro-3-methyl-1-oxobenzo[f]quinazolin-9-yl)methyl)amino)phenyl)-4-oxobutyric acid] |  | pIC50 [1, 8]: 6.15; IC50 at 72 h [3, 9]: 8.8 µM; IC50 at 72 h [4, 9]: 13.5 µM
20 |  | Cc1nc(O)c2c(n1)CCc1ccc(I)cc1-2 [5,6-Dihydro-9-iodo-3-methylbenzo(f)quinazolin-1(2H)-one] |  | IC50 at 72 h [3, 10]: 80 µM; IC50 at 72 h [4, 10]: 70 µM
21 |  | Cc1nc2ccc3c(Cl)cccc3c2c(=O)[nH]1 [7-Chloro-3-methylbenzo(f)quinazolin-1(2H)-one] |  | IC50 at 72 h [3, 9]: 84 µM
22 |  | Cc1nc2ccc3ccc(Cl)cc3c2c(=O)[nH]1 [9-Chloro-3-methylbenzo(f)quinazolin-1(2H)-one] |  | IC50 at 72 h [3, 9]: 80 µM; IC50 at 72 h [4, 9]: 82 µM
23 |  | Cc1nc(O)c2c(ccc3ccc(F)cc32)n1 [9-Fluoro-3-methylbenzo(f)quinazolin-1(2H)-one] |  | IC50 at 72 h [3, 9]: 50 µM; IC50 at 72 h [4, 9]: 72 µM
24 |  | Cc1nc2ccc3ccc(/C=C/c4ccc(C(=O)N[C@@H](CCC(=O)O)C(=O)O)cc4)cc3c2c(=O)[nH]1 [(E)-N-(4-(2(1,2-Dihydro-3-methyl-1-oxobenzo[f]quinazolin-9-yl)vinyl)benzoyl)-L-glutamic acid] |  | pIC50 [1, 11]: < 4.00
25 |  | Cc1nc2ccc3ccc(CN(C)c4ccc5c(c4)CN([C@@H](CCC(=O)O)C(=O)O)C5=O)cc3c2c(=O)[nH]1 [(S)-2-(5-(((1,2-Dihydro-3-methyl-1-oxobenzo[f]quinazolin-9-yl)methyl)methylamino)-1-oxo-2-isoindolinyl)glutaric acid] |  | pIC50 [1, 11]: 6.30
26 |  | Cc1nc2ccc3ccc(CNc4ccc5c(=O)n([C@@H](CCC(=O)O)C(=O)O)sc5c4)cc3c2c(=O)[nH]1 [CH3,9-CH2NH, 2′-SNglu, (S)-2-(2.3-Dihydro-6-(((1,2-dihydro-3-methyl-1-oxobenzo[f]quinazolin-9-yl)methyl)amino)-3-oxo-1,2-benxisothiazol-2-yl)glutaric acid] |  | pIC50 ([1]; read-out: Cell Culture Cytotoxicity CCCT SW-480, Table F, fully aromatic p-aminobenzoylglutamates): 5.70
27 |  | Cc1nc2c(c(=O)[nH]1)-c1ccc([N+](=O)[O-])cc1CC2 [Example 8-NO2, 5,6-dihydro-3-methyl-8-nitrobenzo[f]quinazolin-1(2H)-one] |  | pIC50 ([1]; Homo sapiens, SW480, read-out: Tumor Cell Culture Cytotoxicity IC50 SW480, Table D, 5,6-dihydro 3-methyl derivatives): 4.00; IC50 at 72 h [3, 10]: 52 µM; IC50 at 72 h [4, 10]: 52 µM
28 |  | C=Cc1ccc2ccc3nc(N)[nH]c(=O)c3c2c1 [Example 9-Ethenyl, 3-Amino-9-vinylbenzo[f]quinazolin-1(2H)-one] | 5.22 | 
29 |  | Cc1nc2ccc3ccc(CCc4ccc(C(=O)N[C@@H](CCC(=O)O)C(=O)O)cc4)cc3c2c(=O)[nH]1 [N-(4-(2-(1,2-Dihydro-3-methyl-1-oxobenzo[f]quinazolin-9-yl)ethyl)benzoyl)-L-glutamic acid] |  | pIC50 [1, 11]: 5.05
30 |  | Cc1nc2ccc3cc(CNc4ccc(C(=O)N[C@@H](CCC(=O)O)C(=O)O)cc4)ccc3c2c(=O)[nH]1 [N-(4-(((1,2-Dihydro-3-methyl-1-oxobenzo[f]quinazolin-8-yl)methyl)amino)benzoyl)-L-glutamic acid] |  | pIC50 [1, 11]: < 4.00
31 |  | C#CCN(c1ccc(C(=O)N[C@@H](CCC(=O)O)C(=O)O)cc1)S(=O)(=O)c1ccc2c(c1)CCc1nc(N)[nH]c(=O)c1-2 [N-(4-(((3-Amino-1,2,5,6-tetrahydro-1-oxobenzo(f)quinazolin-8-yl)sulfonyl)(2-propynyl)amino)benzoyl)-L-glutamic acid] |  | pIC50 [1, 12]: < 4.30
32 |  | Nc1nc2c(c(=O)[nH]1)-c1ccc(S(=O)(=O)Nc3ccc(C(=O)N[C@@H](CCC(=O)O)C(=O)O)cc3)cc1CC2 [N-(4-(((3-Amino-1,2,5,6-tetrahydro-1-oxobenzo(f)quinazolin-8-yl)sulfonyl)amino)benzoyl)-L-glutamic acid] |  | pIC50 [1, 12]: 4.60
33 |  | Nc1nc2ccc3ccc(NS(=O)(=O)c4ccc(C(=O)N[C@@H](CCC(=O)O)C(=O)O)cc4)cc3c2c(=O)[nH]1 [N-(4-(((3-Amino-1,2-dihydro-1-oxobenzo(f)quinazolin-9-yl)amino)sulfonyl)benzoyl)-L-glutamic acid] |  | pIC50 [1, 11]: < 4.00
34 |  | Nc1nc2c(c(=O)[nH]1)-c1cc(S(=O)(=O)Nc3ccc(C(=O)N[C@@H](CCC(=O)O)C(=O)O)cc3)c(Br)cc1CC2 [N-(4-(((3-Amino-8-bromo-1,2,5,6-tetrahydro-1-oxobenzo(f)quinazolin-9-yl)sulfonyl)amino)benzoyl)-L-glutamic acid] |  | pIC50 [1, 12]: < 4.30
35 |  | Cc1nc2c(c(=O)[nH]1)-c1cc(S(=O)(=O)N(C)c3ccc(C(=O)N[C@@H](CCC(=O)O)C(=O)O)cc3)ccc1CC2 [N-(4-(Methyl((1,2,5,6-tetrahydro-3-methyl-1-oxobenzo(f)quinazolin-9-yl)sulfonyl)amino)benzoyl)-L-glutamic acid] |  | pIC50 [1, 12]: < 4.30
36 |  | Cc1nc2ccc3ccc(CNc4ccc(C(=O)N[C@@H](CCC(=O)O)C(=O)O)s4)cc3c2c(=O)[nH]1 [N-((5-(((1,2-Dihydro-3-methyl-1-oxobenzo[f]quinazolin-9-yl)methyl)amino-2-thienyl)carbonyl)-L-glutamic acid] |  | pIC50 ([1]; read-out: Tumor Cell Culture Cytotoxicity IC50 SW480, Table E, fully aromatic 3-methyl derivatives): 7.00

Row | SMILES | pIC50 [2] | pIC50 [1, 5] | other results
37 | Nc1nc2c3ccccc3c3ccccc3c2c(=O)[nH]1 [2-Aminodibenzo(f,h)quinazolin-4(3H)-one] | 3.52 to 6.00 | 5.40 | 
38 | CCN(CC)S(=O)(=O)c1cc2c(ccc3nc(N)[nH]c(=O)c32)cc1Br [3-Amino-8-bromo-N,N-diethyl-1,2-dihydro-1-oxobenzo(f)quinazoline-9-sulfonamide] | 3.52 to 6.00 | 5.60 | 
